Measurements published in patent EP1200395B1, “UREA DERIVATIVES AS INHIBITORS OF CCR-3 RECEPTOR” (KIRIN BEER KABUSHIKI KAISHA, priority 1999, dated 2001).
Counter-ions that a name gives are not always drawn.

The compounds below were run against T1, CCR-3 (Homo sapiens, UniProt P51677) (assay: Eotaxin-induced chemotaxis of CCR-3 transfectant cells (CCR3/U937)). Conditions: 10 µM test compound; eotaxin 1 x 10^-9 M; CCR3/U937 cells (Table 3c).
T1 sequence (P51677 1-355): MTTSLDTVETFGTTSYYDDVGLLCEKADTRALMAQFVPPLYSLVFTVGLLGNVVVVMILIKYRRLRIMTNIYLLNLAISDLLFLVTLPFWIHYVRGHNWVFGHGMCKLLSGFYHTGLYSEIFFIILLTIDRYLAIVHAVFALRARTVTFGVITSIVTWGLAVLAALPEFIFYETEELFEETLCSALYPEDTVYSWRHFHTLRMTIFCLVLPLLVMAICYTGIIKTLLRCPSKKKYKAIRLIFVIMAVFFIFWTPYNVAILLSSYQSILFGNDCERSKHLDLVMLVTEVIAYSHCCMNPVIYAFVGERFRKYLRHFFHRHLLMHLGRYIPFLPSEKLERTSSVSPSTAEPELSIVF
Assay type: cell-based
Design: expressed in transfected cells; host or cells: U937

`CCCC[N+](CC)(CCCNC(=O)Nc1ccc(Br)cc1)CCc1ccc(Cl)cc1.[I-]` (centres unmarked) [Compound 294] and `CCC[N+](CC)(CCCNC(=O)Nc1ccc(Br)cc1)CCc1ccc(Cl)cc1.[I-]` (centres unmarked) [Compound 295] are the same in “Chemotaxis Assay 10 µM (inhibition %)” value: 100% for the first, 100% for the second.

`CC[N+](CCCNC(=O)Nc1ccccc1)(CCc1ccc(Cl)cc1)Cc1ccc(C)cc1.[I-]` (centres unmarked) [Compound 297] and `CC[N+](CCCNC(=O)Nc1ccccc1)(CCc1ccc(Cl)cc1)Cc1ccc(Br)cc1.[I-]` (centres unmarked) [compound 340] are the same in “Chemotaxis Assay 10 µM (inhibition %)” value: 100% for the first, 100% for the second.

`CC[N+](CCCO)(CCCNC(=O)Nc1ccccc1)CCc1ccc(Cl)cc1.[I-]` (centres unmarked) [Compound 299] and `CC[N+](CC)(CCCCCNC(=O)Nc1ccccc1)CCc1ccc(Cl)cc1.[I-]` [Compound 323, [5-(Phenylureido)pentyl][2-(4-chlorophenyl)ethyl]diethylammanium iodide] are the same in “Chemotaxis Assay 10 µM (inhibition %)” value: 100% for the first, 100% for the second.

`CC[N+](CCCNC(=O)Nc1ccccc1)(CCc1ccc(Cl)cc1)CC(N)=O.[I-]` (centres unmarked) [Compound 300] and `C=CC[N+](CC)(CCCNC(=O)Nc1ccccc1)CCc1ccc(Cl)cc1.[I-]` (centres unmarked) [Compound 301] are the same in “Chemotaxis Assay 10 µM (inhibition %)” value: 100% for the first, 100% for the second.

`CC[N+](CCCNC(=O)Nc1ccccc1)(CCc1ccc(Cl)cc1)Cc1ccc(C(=O)OC)cc1.[I-]` (centres unmarked) [Compound 303] and `CC[N+](CCCNC(=O)Nc1ccccc1)(CCc1ccc(Cl)cc1)Cc1cccc(C(=O)OC)c1.[I-]` (centres unmarked) [compound 332] are the same in “Chemotaxis Assay 10 µM (inhibition %)” value: 100% for the first, 100% for the second.

Compared with `CC[N+](CC)(CCCNC(=O)Nc1ccccc1)CCc1ccc(OC)cc1.[I-]` [Compound 304], `CC[N+](CC)(CCCNC(=O)Nc1ccccc1)CCc1ccc(C)cc1.[I-]` [Compound 307] is higher in “Chemotaxis Assay 10 µM (inhibition %)” value: 66% for the first, 92% for the second.

`CC[N+](CC)(CCCNC(=O)Nc1ccccc1)Cc1ccccc1.[I-]` [Compound 305] and `CC[N+](CC)(CCCNC(=O)Nc1ccccc1)CCc1ccccc1Cl.[I-]` [Compound 308] are the same in “Chemotaxis Assay 10 µM (inhibition %)” value: 100% for the first, 100% for the second.

`CC[N+](CC)(CCCNC(=O)Nc1ccccc1)CCc1ccc(F)cc1.[I-]` [Compound 306] and `CC[N+](CCCNC(=O)Nc1ccccc1)(CCc1ccc(Cl)cc1)CC(C)C.[I-]` (centres unmarked) [compound 318] are the same in “Chemotaxis Assay 10 µM (inhibition %)” value: 100% for the first, 100% for the second.

Compared with `CC[N+](CC)(CCCNC(=O)Nc1ccccc1)C1CCc2ccccc21.[I-]` (centres unmarked) [compound 311], `CC[N+](CCCNC(=O)Nc1ccc(Br)cc1)(CCCC(=O)OC)C1CCc2ccccc21.[I-]` (centres unmarked) [compound 314] is higher in “Chemotaxis Assay 10 µM (inhibition %)” value: 93% for the first, 100% for the second.

First: CC[N+](CCCNC(=O)Nc1ccc(Br)cc1)(CCCC(=O)OC)C(C)c1ccccc1.[I-] (centres unmarked) [compound 312]
Second: CCOC(=O)CCCCC[N+](CC)(CCCNC(=O)Nc1ccccc1)CCc1ccc(Cl)cc1.[I-] (centres unmarked) [compound 321]
The “Chemotaxis Assay 10 µM (inhibition %)” value of the first is lower: 97% for the first, 100% for the second.

First: CC[N+](CCCNC(=O)Nc1ccc(Br)cc1)(CCCC(=O)OC)C(C)c1ccccc1.[I-] (centres unmarked) [compound 313]
Second: CC[N+](CCCNC(=O)Nc1ccc(OC)cc1)(CCc1ccc(Cl)cc1)Cc1ccccc1.[I-] (centres unmarked) [compound 324]
The “Chemotaxis Assay 10 µM (inhibition %)” value of the first is lower: 86% for the first, 100% for the second.

`CC[N+](CCCNC(=O)Nc1ccccc1)(CCc1ccc(Cl)cc1)CCc1ccc(Cl)cc1.[I-]` [compound 317] and `CC[N+](CCCNC(=O)Nc1ccccc1)(CCc1ccc(Cl)cc1)Cc1cccc(Cl)c1.[I-]` (centres unmarked) [compound 329] are the same in “Chemotaxis Assay 10 µM (inhibition %)” value: 100% for the first, 100% for the second.

`CC[N+](CCCNC(=O)Nc1ccccc1)(CCc1ccc(Cl)cc1)CC1CCCCC1.[I-]` (centres unmarked) [compound 319] and `CC[N+](CCCNC(=O)Nc1ccccc1)(CCc1ccc(Cl)cc1)Cc1cccc(C)c1.[I-]` (centres unmarked) [compound 347] are the same in “Chemotaxis Assay 10 µM (inhibition %)” value: 100% for the first, 100% for the second.

`CC[N+](CCCNC(=O)Nc1ccc(Cl)c(Cl)c1)(CCc1ccc(Cl)cc1)Cc1ccccc1.[I-]` (centres unmarked) [compound 325] and `CC[N+](CCCNC(=O)Nc1ccc(C#N)cc1)(CCc1ccc(Cl)cc1)Cc1ccccc1.[I-]` (centres unmarked) [compound 326] are the same in “Chemotaxis Assay 10 µM (inhibition %)” value: 100% for the first, 100% for the second.

`CC[N+](CCCNC(=O)Nc1ccccc1)(CCc1ccc(Cl)cc1Cl)Cc1ccccc1.[I-]` (centres unmarked) [compound 327] and `CC[N+](CCCNC(=O)Nc1ccccc1)(CCc1cccc(Cl)c1)Cc1ccccc1.[I-]` (centres unmarked) [compound 328] are the same in “Chemotaxis Assay 10 µM (inhibition %)” value: 100% for the first, 100% for the second.

`CC[N+](CCCNC(=O)Nc1ccccc1)(CCc1ccc(Cl)cc1)Cc1ccc(-c2ccccc2)cc1.[I-]` (centres unmarked) [compound 330] and `CC[N+](CCCNC(=O)Nc1ccccc1)(CCc1ccc(Cl)cc1)Cc1ccc(OCc2ccccc2)cc1.[I-]` (centres unmarked) [compound 334] are the same in “Chemotaxis Assay 10 µM (inhibition %)” value: 100% for the first, 100% for the second.

`CC[N+](CCCNC(=O)Nc1ccccc1)(CCc1ccc(Cl)cc1)Cc1cccc(OC)c1.[I-]` (centres unmarked) [compound 331] and `CC[N+](CCCNC(=O)Nc1ccccc1)(CCc1ccc(Cl)cc1)Cc1ccc(OC)cc1.[I-]` (centres unmarked) [compound 344] are the same in “Chemotaxis Assay 10 µM (inhibition %)” value: 100% for the first, 100% for the second.

`CC[N+](CCCNC(=O)Nc1ccccc1)(CCc1ccc(Cl)cc1)Cc1cccc(Oc2ccccc2)c1.[I-]` (centres unmarked) [compound 333] and `CC[N+](CCCNC(=O)Nc1ccccc1)(CCc1ccc(Cl)cc1)Cc1ccccc1-c1ccccc1.[I-]` (centres unmarked) [compound 341] are the same in “Chemotaxis Assay 10 µM (inhibition %)” value: 100% for the first, 100% for the second.

First: CC[N+](CCCNC(=O)Nc1ccccc1)(CCc1ccc(Cl)cc1)Cc1ccc([N+](=O)[O-])cc1.[I-] (centres unmarked) [compound 337]
Second: CC[N+](CCCNC(=O)Nc1ccccc1)(CCc1ccc(Cl)cc1)Cc1cccc([N+](=O)[O-])c1.[I-] (centres unmarked) [compound 338]
The “Chemotaxis Assay 10 µM (inhibition %)” value of the first is lower: 99% for the first, 100% for the second.

`CC[N+](CCCNC(=O)Nc1ccccc1)(CCc1ccc(Cl)cc1)Cc1ccc(F)cc1F.[I-]` (centres unmarked) [compound 339] and `CC[N+](CCCNC(=O)Nc1ccccc1)(CCc1ccc(Cl)cc1)Cc1ccccc1C.[I-]` (centres unmarked) [compound 346] are the same in “Chemotaxis Assay 10 µM (inhibition %)” value: 100% for the first, 100% for the second.

Going from `CC[N+](CCCNC(=O)Nc1ccccc1)(CCc1ccc(Cl)cc1)Cc1ccc(C(C)(C)C)cc1.[I-]` (centres unmarked) [compound 342] to `CC[N+](CCCNC(=O)Nc1ccccc1)(CCc1ccc(Cl)cc1)Cc1ccc(C#N)cc1.[I-]` (centres unmarked) [compound 345], the “Chemotaxis Assay 10 µM (inhibition %)” value rises from 97% to 100%.

Same assay, conditions: U-937; 10 µM test compound; eotaxin 1 x 10^-9 M; CCR3/U937 cells (Table 3a)

For `C[C@@H](c1ccc(Br)cc1)N(CCCNC(=O)Nc1ccc(Br)cc1)CCCC(=O)O` [Compound 293, 4-[[3-(4-Bromophenylureido)propyl][(1S)-1-(4-bromophenyl)ethyl]amino]butanoic acid], the inhibition at 10 µM was 95%.

Same assay, conditions: U-937; 10 µM test compound; eotaxin 1 x 10^-9 M; CCR3/U937 cells (Table 3c)

Compared with `Cc1ccc(C[N+](CCCNC(=O)Nc2ccccc2)(CCc2ccc(Cl)cc2)Cc2ccc(C)cc2)cc1` [Compound 296, [3-(Phenylureido)propyl][2-(4-chlorophenyl)ethyl]bis(4-methylbenzyl)ammonium iodide], `CC[N+](CCCNC(=O)Nc1ccccc1)(CCc1ccc(Cl)cc1)Cc1ccc(C(=O)O)cc1` (centres unmarked) [Compound 322, [3-(Phenylureido)propyl][2-(4-chlorophenyl)ethyl][4-(carboxy)benzyl]ethylammonium iodide] is higher in inhibition at 10 µM: 67% for the first, 93% for the second.

`CC[N+](CCCNC(=O)Nc1ccccc1)(CCc1ccc(Cl)cc1)Cc1ccccc1` (centres unmarked) [Compound 302, [3-(Phenylureido)propyl][2-(4-chlorophenyl)ethyl](benzyl)ethylammonium iodide] and `CC[N+](CCCNC(=O)Nc1ccccc1)(CCc1ccc(Cl)cc1)Cc1ccccc1Cl` (centres unmarked) [Compound 343, [3-(Phenylureido)propyl][2-(4-chlorophenyl)ethyl](2-chlorobenzyl)ethylammonium iodide] are the same in inhibition at 10 µM: 100% for the first, 100% for the second.

`CC[N+](CC)(CCCNC(=O)Nc1ccccc1)CCc1cccc(Cl)c1` [Compound 309, [3-(Phenylureido)propyl][2-(3-chlorophenyl)ethyl]diethylammonium iodide] and `CC[N+](CCCNC(=O)Nc1ccccc1)(CCc1ccc(Cl)cc1)Cc1cccc(F)c1` (centres unmarked) [Compound 352, [3-(Phenylureido)propyl][2-(4-chlorophenyl)ethyl](3-fluorobenzyl)ethylammonium iodide] are the same in inhibition at 10 µM: 100% for the first, 100% for the second.

First: CC[N+](CCCNC(=O)Nc1ccc(Br)cc1)(CCCC(=O)O)[C@@H](C)c1ccccc1 (stereo partly drawn) [Compound 315, [3-(4-Bromophenylureido)propyl][(1S)-1-phenylethyl][3-(carboxy)propyl]ethylammonium trifluoroacetate]
Second: CC[N+](CCCNC(=O)Nc1ccc(Br)cc1)(CCCC(=O)O)[C@H](C)c1ccccc1 (stereo partly drawn) [Compound 316, [3-(4-Bromophenylureido)propyl][(1R)-1-phenylethyl][3-(carboxy)propyl]ethylammonium trifluoroacetate]
The inhibition at 10 µM of the first is lower: 63% for the first, 82% for the second.

`CC[N+](CCCCC(=O)OC)(CCCNC(=O)Nc1ccccc1)CCc1ccc(Cl)cc1` (centres unmarked) [Compound 320, [3-(Phenylureido)propyl][2-(4-chlorophenyl)ethyl][4-(methoxycarbonyl)butyl] ethylammonium iodide] and `CC[N+](CCCNC(=O)Nc1ccccc1)(CCc1ccc(Cl)cc1)Cc1cc(F)ccc1F` (centres unmarked) [Compound 351, [3-(Phenylureido)propyl][2-(4-chlorophenyl)ethyl](2,5-difluorobenzyl)ethylammonium iodide] are the same in inhibition at 10 µM: 100% for the first, 100% for the second.
